According to patent US6914051B1, “Penetrating antibiotic gel for soft tissue diseases” (priority 2000, dated 2005):

Experiments:
[1] = test system: cervical/lumbosacral disc disease; test: Clinical injection/arthroscopic application of azithromycin with liposome in disc disease; assay type: in vivo, human; conditions: two occasions, applied with a liposome and another anti-inflammatory at surgical arthroscopy of the intervertebral disc
Text: The therapy of the present invention was also observed to be effective in clinical treatment of cervical/lumbosacral disc disease.

[2] = test system: severe acute lower back pain; conditions: short-term oral treatment; effect not seen three or so days after onset; cited from earlier work
[3] = test system: phospholipase A2; conditions: VanBebeke et al, 1994; cited from earlier work
[4] = test system: Chlamydia Pneumoniae; conditions: reported; cited from earlier work

CC[C@H]1OC(=O)[C@H](C)[C@@H](O[C@H]2C[C@@](C)(OC)[C@@H](O)[C@H](C)O2)[C@H](C)[C@@H](O[C@@H]2O[C@H](C)C[C@H](N(C)C)[C@H]2O)[C@](C)(O)C[C@@H](C)CN(C)[C@H](C)[C@@H](O)[C@]1(C)O [azithromycin, azithromycin dihydrate]
relief of the patients' severe pain [1]: good and immediate relief | response of severe acute lower back pain [2]: respond dramatically | effect on neurotoxic phospholipase A2 [3]: direct effect in mitigating the effects

Cc1c(F)c(N2CCNC(C)C2)cc2c1c(=O)c(C(=O)O)cn2C1CC1 (centres unmarked) [Grepafloxacin]
potency against Chlamydia Pneumoniae [4]: good potency

CO[C@H]1/C=C/O[C@@]2(C)Oc3c(C)c(O)c4c(O)c(c(/C=N/N5CCN(C)CC5)c(O)c4c3C2=O)NC(=O)/C(C)=C\C=C\[C@H](C)[C@H](O)[C@@H](C)[C@@H](O)[C@@H](C)[C@H](OC(C)=O)[C@@H]1C [rifanpin]
potency against Chlamydia Pneumoniae [4]: good potency
